Patent US11110098B2, “Methods and medicaments for the treatment of renal cell carcinoma” (University of Kansas, priority 2017, dated 2021)

Experiments:
CCRCC = assay: Immunocompetent animal model of spontaneous CCRCC; format: in vivo, Vh1Δ/ΔTrp53Δ/ΔRb1Δ/Δ mice; details: treatment from 30 weeks after start of tamoxifen till 56 weeks
From the text: The Vh1^Δ/ΔTrp53^Δ/ΔRb1^Δ/Δ mice (Harlander S et al, Nat Med 2017 23(7):869-877) can spontaneously develop CCRCC. Gene deletion of Vhl and tumor suppressors p53 and Rb 1 will be achieved using a Ksp1.3-CreERT2, tamoxifen-inducible system. For the studies, 6-week old Vh1^Δ/ΔTrp53^Δ/ΔRb1^Δ/ΔKsp1.3-CreERT2 mice will be treated with vehicle (saline) or tamoxifen for 14 days used to obtain wildtype control mice and Vh1^Δ/ΔTrp53^Δ/ΔRb1^Δ/Δ mice with RCC stumors. Starting 30 weeks after start of tamoxifen, the wildtype and Vh1^Δ/ΔTrp53^Δ/ΔRb1^Δ/Δ mice will be treated with vehicle, dDAVP, OPC31260, or tolvaptan till 56 weeks. The effect of V2R activation or inhibition will be monitored by MRI as well as by gross and pathological analysis and of kidneys at sacrifice.

Caki-2 = details: Caki-2, in vitro; cited from earlier work
Caki-1 cells [1] = assay: Caki-1 xenograft tumor growth in nude mice; format: in vivo, Nu/Nu mice; details: for tumor size and weight at sacrifice versus vehicle: tolvaptan 120 mg/Kg daily oral gavage or dDAVP 1 μg/Kg daily IP
Protocol: Female Athymic Nude-Foxn1^nu mice (Nu/Nu mice), 7-8 weeks old and weighing ˜25 g were procured from Envigo/Harlan. All animal studies were carried out according to the protocols approved by the University of Kansas Medical Center Institutional Animal Care and Use Committee. Mice were subcutaneously injected on the right flank region with 1×10^6 Caki-1 cells in 100 μl of DMEM medium. […] Once the tumor volume reached ˜80-100 mm^3, mice were randomized into sub-groups based on the tumor volume. Animals were administered vehicle, OPC31260 (30 mg/Kg BWt.), OPC31260 (60 mg/Kg BWt) or dDAVP (1 μg/Kg BWt.) and vehicle (saline) by daily intraperitoneal injection, (60 mg/Kg BWt) or dDAVP (1 μg/Kg BWt.) and vehicle (saline) by daily intraperitoneal injection, or tolvaptan (120 mg/Kg BWt. in 1% aqueous solution of hydroxypropyl methylcellulose-dose derived from previous study^31) or vehicle by daily oral gavage for 28 days. Body weights and tumor volumes were measured every alternate day. At the end of the study, mice were injected with BRDU (100 mg/Kg BWt. by IP) 90 minutes before sacrifice. Tumors were harvested, photographed and weighed. Tumors were flash frozen or paraffin embedded for further analysis.

Caki-1 cells [2] = assay: Immunostaining of xenograft tumor sections (Ki-67, BRDU, CD31); format: in vivo, Nu/Nu mice; details: for BRDU staining / incorporation of tumors compared to vehicle / Ki-67 staining of tumors compared to vehicle / tumor micro-vessel density (CD31 staining): OPC31260 IP, tolvaptan 120 mg/Kg oral, dDAVP 1 μg/Kg IP, daily 28 days
Protocol: (§1) Female Athymic Nude-Foxn1^nu mice (Nu/Nu mice), 7-8 weeks old and weighing ˜25 g were procured from Envigo/Harlan. All animal studies were carried out according to the protocols approved by the University of Kansas Medical Center Institutional Animal Care and Use Committee. Mice were subcutaneously injected on the right flank region with 1×10^6 Caki-1 cells in 100 μl of DMEM medium. One week after injection, palpable tumors appeared and tumor volume was measured with calipers following the formula, […]. Once the tumor volume reached ˜80-100 mm^3, mice were randomized into sub-groups based on the tumor volume. Animals were administered vehicle, OPC31260 (30 mg/Kg BWt.), OPC31260 (60 mg/Kg BWt) or dDAVP (1 μg/Kg BWt.) and vehicle (saline) by daily intraperitoneal injection, or tolvaptan (120 mg/Kg BWt. in 1% aqueous solution of hydroxypropyl methylcellulose-dose derived from previous study^31) or vehicle by daily oral gavage for 28 days. Body weights and tumor volumes were measured every alternate day. At the end of the study, mice were injected with BRDU (100 mg/Kg BWt. by IP) 90 minutes before sacrifice. Tumors were harvested, photographed and weighed. Tumors were flash frozen or paraffin embedded for further analysis.
Tumor tissues were fixed overnight in 4% paraformaldehyde, dehydrated in a graded alcohol series, and embedded in paraffin for histological analysis as previously described^26. Slides with 5 μm tissue sections were heated in a steamer for 20 min in citrate buffer (pH 6.0) to unmask antigens. Slides were further blocked with 10% goat serum (Invitrogen) and then incubated overnight with primary antibody (V2R, CD31, BRDU, Ki67 and p-H3). After washing the slides with PBST, slides were incubated with appropriate fluorescence-labeled secondary antibody (Invitrogen) and streptavidin HRP conjugated (Invitrogen) secondary antibody for immunoflurorescence and immunohistochemistry, respectively. Slides were also incubated in 4′,6-diamidino-2-phenylindole to visualize nuclei. For immunofluorescence staining, slides were mounted with Fluoromount G (Southern Biotech). For immunohistochemistry, slides were developed with DAB (Vector Laboratories) and counterstained with Harris haematoxylin, dehydrated, and mounted with Permount (Fisher Scientific, Waltham, Mass.). All images were captured using a Nikon 80i microscope (Tokyo, Japan) at the KUMC Imaging Center.

[3] = system: pERK1/2, ERK1/2, pCREB, CREB, VEGF; assay: Immunoblotting of xenograft tumor lysates; format: in vivo, Nu/Nu mice; details: for VEGF protein levels in tumors compared to vehicle: OPC31260 IP, daily 28 days
Protocol: as §1
Tumors from mouse xenografts and cultured 786-O and Caki-1 cells were homogenized in SDS Laemmli buffer and loaded onto 10% SDS-polyacrylamide agarose gel electrophoresis gels, transferred to nitrocellulose membranes and blocked with 5% milk in TBST^32. Membranes were probed with primary antibody followed by wash and horseradish peroxidase secondary antibody application.

[4] = format: in vivo; details: tolvaptan 120 mg/Kg daily oral gavage or dDAVP 1 μg/Kg daily IP, 28 days; for urine osmolality: data not shown
Protocol: as §1

A498 cells = details: A498, in vitro; cited from earlier work
Caki-1 cells [5] = assay: TUNEL assay for apoptosis in xenograft tumor sections; format: in vivo, Nu/Nu mice; details: OPC31260 IP, tolvaptan 120 mg/Kg oral, dDAVP 1 μg/Kg IP, daily 28 days
Protocol: as §1
TUNEL assays were performed to check apoptosis using the in situ Cell Death Detection Kit (Roche Applied Science, Indianapolis, Ind.). Briefly, slides with 5-μm tumor sections were treated to a TUNEL reaction mixture containing terminal deoxynucleotidyl transferase and nucleotides, including tetramethylrhodamine-labeled dUTP. Both Dapi stained and TUNEL-positive nuclei were counted as described for proliferating cell nuclear antigen. All images were captured using a Nikon 80i microscope (Tokyo, Japan) in the KUMC Imaging Center.

V2R [6] = biological target: T1, V2R (Homo sapiens, UniProt P30518); details: cited from earlier work
V2R [7] = biological target: T1, V2R; details: cited from earlier work; remark: listed apart in the source
V1bR = biological target: T2, V1bR (Homo sapiens, UniProt P47901); details: cited from earlier work
T2 sequence (P47901 1-424): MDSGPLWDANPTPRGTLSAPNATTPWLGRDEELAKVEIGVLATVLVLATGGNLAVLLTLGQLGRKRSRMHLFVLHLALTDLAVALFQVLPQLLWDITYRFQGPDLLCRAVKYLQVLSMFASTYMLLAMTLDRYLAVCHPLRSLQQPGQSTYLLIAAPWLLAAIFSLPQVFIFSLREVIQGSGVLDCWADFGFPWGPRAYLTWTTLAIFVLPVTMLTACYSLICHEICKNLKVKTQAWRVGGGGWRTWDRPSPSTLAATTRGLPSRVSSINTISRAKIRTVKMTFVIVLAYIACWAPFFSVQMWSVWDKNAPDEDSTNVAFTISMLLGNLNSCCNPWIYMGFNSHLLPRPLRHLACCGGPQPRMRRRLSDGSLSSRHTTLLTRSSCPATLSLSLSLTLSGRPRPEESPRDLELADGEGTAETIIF

[8] = humans; cited from earlier work
[9] = in vivo; cited from earlier work
[10] = dDAVP 1 μg/Kg daily IP injection, day 28
[11] = OPC31260 30/60 mg/kg IP, tolvaptan 120 mg/Kg oral, dDAVP 1 μg/Kg IP, 28 days
[12] = tolvaptan 120 mg/Kg oral, dDAVP 1 μg/Kg IP

T1 sequence (P30518 whole entry): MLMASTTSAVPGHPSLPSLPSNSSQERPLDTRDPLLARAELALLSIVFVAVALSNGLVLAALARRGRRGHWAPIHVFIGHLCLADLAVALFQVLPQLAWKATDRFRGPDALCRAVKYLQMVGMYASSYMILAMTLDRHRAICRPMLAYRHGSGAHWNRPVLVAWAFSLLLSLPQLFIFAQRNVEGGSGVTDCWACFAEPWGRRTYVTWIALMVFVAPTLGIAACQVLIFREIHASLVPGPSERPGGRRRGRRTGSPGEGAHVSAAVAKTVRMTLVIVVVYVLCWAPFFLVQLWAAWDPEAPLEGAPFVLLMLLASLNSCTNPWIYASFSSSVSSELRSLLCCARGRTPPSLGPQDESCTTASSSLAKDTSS

Row | Compound | expected tumor burden / tumor growth (CCRCC) | tumor size and weight at sacrifice versus vehicle (Caki-1 cells [1]; 28 days) | BRDU staining / incorporation of tumors compared to vehicle (Caki-1 cells [2]) | Ki-67 staining of tumors compared to vehicle (Caki-1 cells [2]) | tumor micro-vessel density (CD31 staining) (Caki-1 cells [2]) | pCREB levels in tumor lysates [3, 11] | pERK1/2 levels in tumor lysates [3, 11] | VEGF protein levels in tumors compared to vehicle [3, 12] | body weight of the mice [4] | toxicity [4] | urine osmolality [4] | TUNEL staining of tumors compared to vehicle (Caki-1 cells [5]) | further results
1 | NC(=O)CC[C@@H]1NC(=O)[C@H](Cc2ccccc2)NC(=O)[C@H](Cc2ccc(O)cc2)NC(=O)CCSSC[C@@H](C(=O)N2CCC[C@H]2C(=O)N[C@H](CCCN=C(N)N)C(=O)NCC(N)=O)NC(=O)[C@H](CC(N)=O)NC1=O [dDAVP, 1-desamino-8-d-arginine vasopressin] | increased tumor burden | larger than in the vehicle group | no significant change | significant increase | increased | increased | reduced | did not affect | did not significantly change | minimal obvious toxicity | increased | no significant change | proliferation on V2R activation (Caki-2): increased proliferation; tumor volume till day 21 (Caki-1 cells [1]; dDAVP 1 μg/Kg daily IP injection): did not increase significantly; tumor volume by day 28, higher than its baseline (Caki-1 cells [1]; [10]): 16 fold; tumor volume by day 28, higher than vehicle group (Caki-1 cells [1]; [10]): 2 fold; ERK1/2 levels in tumor lysates ([3]; dDAVP 1 μg/Kg IP, 28 days): reduced; proliferation on V2R activation (A498 cells): increased proliferation
2 | CCOc1ccc2c(c1)C1(CCC(OCCN3CCOCC3)CC1)C(=O)N2S(=O)(=O)c1ccc(C(=O)NC(C)(C)C)cc1OC (stereo not drawn) [satavaptan] |  |  |  |  |  |  |  |  |  |  |  |  | effect on dDAVP-induced proliferation (Caki-2): abolished dDAVP-induced proliferation; effect on time-dependent increase in cell proliferation (baseline) (Caki-2): did not reduce; effect on dDAVP-induced proliferation (A498 cells): abolished dDAVP-induced proliferation; effect on time-dependent increase in cell proliferation (baseline) (A498 cells): did not reduce
3 | Cc1ccccc1C(=O)Nc1ccc(C(=O)N2CCCC(O)c3cc(Cl)ccc32)c(C)c1 (stereo not drawn) [tolvaptan, N-[4-[(7-chloro-2,3,4,5-tetrahydro-5-hydroxy-1H-1-benzazepin-1-yl)carbonyl]-3-methylphenyl]-2-methylbenzamide] | significantly suppress tumor growth | smaller and weighed significantly less | significantly reduced | significantly reduced | did not appear to alter | reduced | reduced | significantly reduced | did not significantly change | minimal obvious toxicity | significantly reduced | increased | intrinsic V2R agonistic effect (V2R [6]): no intrinsic V2R agonistic effect; selectivity in blocking [3H]AVP binding to human V2R than V1aR (V2R [7]): 29 fold; tumor volume versus vehicle (Caki-1 cells [1]; tolvaptan 120 mg/Kg daily oral gavage, 28 days): significantly reduced; effect on cell proliferation and apoptosis compared with OPC31260 (Caki-1 cells [2]; tolvaptan 120 mg/Kg oral versus OPC31260 IP): relatively lower than that of OPC31260; CREB levels in tumor lysates ([3]; OPC31260 30/60 mg/kg IP, tolvaptan 120 mg/Kg oral, 28 days): reduced; inhibition of V1bR (V1bR): does not inhibit; mean absolute bioavailability [8]: 56%; oral activity compared with OPC31260 [9]: relatively better oral activity than OPC31260
